Measurements as given in article PMC3378510 (Nature immunology, 2012).

What was measured:
1E6 CD8^+ T cell clone = experiment: Peptide mutagenesis scan of 1E6 T cells, TNF secretion; type: cell-based, human; settings: compared with index peptide; peptide 1 μg/ml, 16 hr
[1] = system: 1E6 clone, in the context of HLA A*0201; settings: compared with preproinsulin-derived peptide ALWGPDPAAA; cited from earlier work

## R: A Position 1: ALWGPDPAAA with A1 mutated to R (RLWGPDPAAA)
1E6 CD8^+ T cell clone
  TNF response / activation, in words: larger responses compared with the index peptide

## Q: L Position 2: ALWGPDPAAA with L2 mutated to Q (AQWGPDPAAA)
1E6 CD8^+ T cell clone
  TNF response / activation, in words: larger responses compared with the index peptide

## RQFGPDFPTI
[1]
  agonist potency, in words: most potent peptide identified
